Measurements from US20220144799A1, “PESTICIDALLY ACTIVE HETEROCYCLIC DERIVATIVES WITH SULFUR CONTAINING SUBSTITUENTS” (SYNGENTA CROP PROTECTION AG, priority 2019, published 2022).

What was measured:
Assay type in all cases: in vivo
[1] = test system: Bemisia tabaci (Cotton White Fly); assay: Activity against Bemisia tabaci (cotton white fly), sprayed cotton leaf discs; conditions: foliar, 144 h, application rate of 200 ppm, adult white flies, 6 days after incubation
Experimental: Example B1: Activity Against Bemisia tabaci (Cotton White Fly)
Cotton leaf discs were placed on agar in 24-well microtiter plates and sprayed with aqueous test solutions prepared from 10′000 ppm DMSO stock solutions. After drying the leaf discs were infested with adult white flies. The samples were checked for mortality 6 days after incubation.

[2] = test system: Plutella xylostella (Diamond Back Moth); assay: Activity against Plutella xylostella (diamond back moth), treated artificial diet; conditions: 192 h, application rate of 200 ppm, Plutella eggs, 8 days after infestation, read-out: effect in at least one of the two categories (mortality or growth inhibition)
Experimental: Example B4: Activity Against Plutella xylostella (Diamond Back Moth)
24-well microtiter plates with artificial diet were treated with aqueous test solutions prepared from 10′000 ppm DMSO stock solutions by pipetting. After drying, Plutella eggs were pipetted through a plastic stencil onto a gel blotting paper and the plate was closed with it. The samples were assessed for mortality and growth inhibition in comparison to untreated samples 8 days after infestation.
(§1) The following compounds gave an effect of at least 80% in at least one of the two categories (mortality or growth inhibition) at an application rate of 200 ppm: […]

[3] = test system: Spodoptera littoralis (Egyptian Cotton Leaf Worm); assay: Activity against Spodoptera littoralis (Egyptian cotton leaf worm), sprayed cotton leaf discs; conditions: foliar, 72 h, application rate of 200 ppm, L1 larvae, 3 days after infestation
Experimental: Example B7: Activity Against Spodoptera littoralis (Egyptian Cotton Leaf Worm)
Cotton leaf discs were placed onto agar in 24-well microtiter plates and sprayed with aqueous test solutions prepared from 10′000 ppm DMSO stock solutions. After drying the leaf discs were infested with five L1 larvae. The samples were assessed for mortality, anti-feeding effect, and growth inhibition in comparison to untreated samples 3 days after infestation. Control of Spodoptera littoralis by a test sample is given when at least one of the categories mortality, anti-feedant effect, and growth inhibition is higher than the untreated sample.

[4] = test system: Myzus persicae (Green Peach Aphid); assay: Activity against Myzus persicae (green peach aphid), systemic activity, pea seedling roots in test solution; conditions: 144 h, test rate of 24 ppm, aphid population of mixed ages, 6 days after placing seedlings into test solutions
Experimental: Example B6: Activity Against Myzus persicae (Green Peach Aphid) Systemic Activity
Roots of pea seedlings infested with an aphid population of mixed ages were placed directly into aqueous test solutions prepared from 10′000 DMSO stock solutions. The samples were assessed for mortality 6 days after placing seedlings into test solutions.

[5] = test system: Euschistus heros (Neotropical Brown Stink Bug); assay: Activity against Euschistus heros (neotropical brown stink bug), sprayed soybean leaves; conditions: 120 h, application rate of 200 ppm, N2 nymphs, 5 days after infestation, read-out: effect in at least one of the two categories (mortality or growth inhibition)
Experimental: Example B3: Activity Against Euschistus heros (Neotropical Brown Stink Bug)
Soybean leaves on agar in 24-well microtiter plates were sprayed with aqueous test solutions prepared from 10′000 ppm DMSO stock solutions. After drying the leaves were infested with N2 nymphs. The samples were assessed for mortality and growth inhibition in comparison to untreated samples 5 days after infestation.
as §1

[6] = test system: Diabrotica Balteata (Corn Root Worm); assay: Activity against Diabrotica balteata (corn root worm), sprayed maize sprouts; conditions: 96 h, application rate of 200 ppm, L2 larvae, 4 days after infestation, read-out: effect in at least one of the two categories (mortality or growth inhibition)
Experimental: Example B2: Activity Against Diabrotica Balteata (Corn Root Worm)
Maize sprouts placed onto an agar layer in 24-well microtiter plates were treated with aqueous test solutions prepared from 10′000 ppm DMSO stock solutions by spraying. After drying, the plates were infested with L2 larvae (6 to 10 per well). The samples were assessed for mortality and growth inhibition in comparison to untreated samples 4 days after infestation.
as §1

[7] = test system: Myzus persicae (Green Peach Aphid); assay: Activity against Myzus persicae (green peach aphid), feeding/contact activity, sunflower leaf discs; conditions: foliar, 144 h, application rate of 200 ppm, aphid population of mixed ages, 6 days after infestation
Experimental: Example B5: Activity Against Myzus persicae (Green Peach Aphid) Feeding/Contact Activity
Sunflower leaf discs were placed onto agar in a 24-well microtiter plate and sprayed with aqueous test solutions prepared from 10′000 ppm DMSO stock solutions. After drying, the leaf discs were infested with an aphid population of mixed ages. The samples were assessed for mortality 6 days after infestation.

CCS(=O)(=O)c1cc(C(C)(C)C#N)cnc1-c1ncc(OCC(F)(F)C(F)(F)F)c(=O)n1C [Compound P13, 2-[5-ethylsulfonyl-6-[1-methyl-6-oxo-5-(2,2,3,3,3-pentafluoropropoxy)pyrimidin-2-yl]-3-pyridyl]-2-methyl-propanenitrile]
≥ 80%: mortality at 200 ppm [1] | percent effect (mortality or growth inhibition) at 200 ppm [2] | percent control (mortality, anti-feedant effect or growth inhibition) at 200 ppm [3] | mortality at 24 ppm [4] | percent effect (mortality or growth inhibition) at 200 ppm [5] | percent effect (mortality or growth inhibition) at 200 ppm [6]

CCS(=O)(=O)c1cc(N(C)C(C)=O)cnc1-c1ncc(OCC(F)(F)C(F)(F)F)c(=O)n1C [Compound P5, N-[5-ethylsulfonyl-6-[1-methyl-6-oxo-5-(2,2,3,3,3-pentafluoropropoxy)-pyrimidin-2-yl]-3-pyridyl]-N-methyl-acetamide]
≥ 80%: percent effect (mortality or growth inhibition) at 200 ppm [2] | mortality at 200 ppm [7] | mortality at 24 ppm [4] | percent effect (mortality or growth inhibition) at 200 ppm [5] | percent effect (mortality or growth inhibition) at 200 ppm [6]

CCS(=O)(=O)c1cc(C2(C#N)CC2)cnc1-c1ncc(OCC(F)(F)C(F)(F)F)c(=O)n1C [Compound P11, 1-[5-ethylsulfonyl-6-[1-methyl-6-oxo-5-(2,2,3,3,3-pentafluoropropoxy)-pyrimidin-2-yl]-3-pyridyl]cyclopropanecarbonitrile]
≥ 80%: mortality at 200 ppm [1] | percent effect (mortality or growth inhibition) at 200 ppm [2] | percent control (mortality, anti-feedant effect or growth inhibition) at 200 ppm [3] | mortality at 200 ppm [7] | mortality at 24 ppm [4] | percent effect (mortality or growth inhibition) at 200 ppm [5] | percent effect (mortality or growth inhibition) at 200 ppm [6]

CCS(=O)(=O)c1cccnc1-c1ncc(OCC(F)(F)C(F)(F)F)c(=O)n1C [Compound P2, 2-(3-ethylsulfonyl-2-pyridyl)-3-methyl-5-(2,2,3,3,3-pentafluoro-propoxy)pyrimidin-4-one]
≥ 80%: mortality at 200 ppm [1] | percent effect (mortality or growth inhibition) at 200 ppm [2] | percent control (mortality, anti-feedant effect or growth inhibition) at 200 ppm [3] | mortality at 200 ppm [7] | mortality at 24 ppm [4] | percent effect (mortality or growth inhibition) at 200 ppm [5] | percent effect (mortality or growth inhibition) at 200 ppm [6]

CCSc1cccnc1-c1ncc(OCC(F)(F)C(F)(F)F)c(=O)n1C [Compound P1, 2-(3-ethylsulfanyl-2-pyridyl)-3-methyl-5-(2,2,3,3,3-pentafluoro-propoxy)pyrimidin-4-one]
≥ 80%: mortality at 200 ppm [1] | percent effect (mortality or growth inhibition) at 200 ppm [2] | mortality at 200 ppm [7] | mortality at 24 ppm [4] | percent effect (mortality or growth inhibition) at 200 ppm [5] | percent effect (mortality or growth inhibition) at 200 ppm [6]

CCS(=O)(=O)c1ccc(N(C)C(=O)C2CC2)nc1-c1ncc(OCC(F)(F)C(F)(F)F)c(=O)n1C [Compound P16, N-[5-ethylsulfonyl-6-[1-methyl-6-oxo-5-(2,2,3,3,3-pentafluoropropoxy)pyrimidin-2-yl]-2-pyridyl]-N-methyl-cyclo-propanecarboxamide]
≥ 80%: mortality at 200 ppm [1] | percent effect (mortality or growth inhibition) at 200 ppm [2] | percent control (mortality, anti-feedant effect or growth inhibition) at 200 ppm [3] | mortality at 200 ppm [7] | mortality at 24 ppm [4] | percent effect (mortality or growth inhibition) at 200 ppm [5] | percent effect (mortality or growth inhibition) at 200 ppm [6]

CCS(=O)(=O)c1ccc(-n2cncn2)nc1-c1ncc(OCC(F)(F)C(F)(F)F)c(=O)n1C [Compound P14, 2-[3-ethylsulfonyl-6-(1,2,4-triazol-1-yl)-2-pyridyl]-3-methyl-5-(2,2,3,3,3-pentafluoropropoxy) pyrimidin-4-one]
≥ 80%: mortality at 200 ppm [1] | percent effect (mortality or growth inhibition) at 200 ppm [2] | percent control (mortality, anti-feedant effect or growth inhibition) at 200 ppm [3] | mortality at 200 ppm [7] | mortality at 24 ppm [4] | percent effect (mortality or growth inhibition) at 200 ppm [5] | percent effect (mortality or growth inhibition) at 200 ppm [6]

CCS(=O)(=O)c1ccc(N(C)C(=O)NC)nc1-c1ncc(OCC(F)(F)C(F)(F)F)c(=O)n1C [Compound P15, 1-[5-ethylsulfonyl-6-[1-methyl-6-oxo-5-(2,2,3,3,3-pentafluoropropoxy)pyrimidin-2-yl]-2-pyridyl]-1,3-dimethyl-urea]
≥ 80%: mortality at 200 ppm [7] | mortality at 24 ppm [4] | percent effect (mortality or growth inhibition) at 200 ppm [5]

CCS(=O)(=O)c1cc(Oc2ccccn2)cnc1-c1ncc(OCC(F)(F)C(F)(F)F)c(=O)n1C [Compound P20, 2-[3-ethylsulfonyl-5-(2-pyridyloxy)-2-pyridyl]-3-methyl-5-(2,2,3,3,3-pentafluoropropoxy) pyrimidin-4-one]
≥ 80%: percent effect (mortality or growth inhibition) at 200 ppm [2] | percent control (mortality, anti-feedant effect or growth inhibition) at 200 ppm [3] | mortality at 200 ppm [7] | mortality at 24 ppm [4] | percent effect (mortality or growth inhibition) at 200 ppm [5] | percent effect (mortality or growth inhibition) at 200 ppm [6]

CCS(=O)(=O)c1cc(C2CC2)cnc1-c1ncc(OCC(F)(F)C(F)(F)F)c(=O)n1C [Compound P18, 2-(5-cyclopropyl-3-ethylsulfonyl-2-pyridyl)-3-methyl-5-(2,2,3,3,3-pentafluoropropoxy) pyrimidin-4-one]
≥ 80%: percent effect (mortality or growth inhibition) at 200 ppm [2] | percent control (mortality, anti-feedant effect or growth inhibition) at 200 ppm [3] | mortality at 200 ppm [7] | mortality at 24 ppm [4] | percent effect (mortality or growth inhibition) at 200 ppm [5] | percent effect (mortality or growth inhibition) at 200 ppm [6]

CCS(=O)(=O)c1ccc(N(C)C(C)=O)nc1-c1ncc(OCC(F)(F)C(F)(F)F)c(=O)n1C [Compound P9, N-[5-ethylsulfonyl-6-[1-methyl-6-oxo-5-(2,2,3,3,3-pentafluoropropoxy)-pyrimidin-2-yl]-2-pyridyl]-N-methyl-acetamide]
≥ 80%: mortality at 200 ppm [1] | percent effect (mortality or growth inhibition) at 200 ppm [2] | mortality at 200 ppm [7] | mortality at 24 ppm [4] | percent effect (mortality or growth inhibition) at 200 ppm [6]
